Consider 5 molecules from US20090131519A1 (priority 2005, published 2009).

Experiment [1] relates to Fusarium fungi. Kind of experiment: Field trial, winter wheat "Slade", Ulhówek (Poland) 2004: natural Fusarium ear infection, DON and ZEA content of grains (HPLC/MS), grain yield. Type of experiment: in vivo. The conditions noted are these: for ZEA content of the grains / Infection (ears infected by Fusarium fungi) / Grain yield: dose prohexadione-Ca 50, metconazole 90; for ZEA content of the grains: relative to untreated = 100% (0.073 mg per kg of harvested grains); for Infection (ears infected by Fusarium fungi): relative to untreated = 100% (4.5% of the ears infected), assessed Jul. 22, 2004; for Grain yield: relative to untreated = 100% (8.6 t/ha).

For experiment [2], the system named is Fusarium fungi. Kind of experiment: Field trial, winter wheat "Ritmo", Gronau 2004: natural Fusarium ear infection, DON and NIV content of grains (HPLC/MS), grain yield. Type of experiment: in vivo.
A further experiment relates to mildew. The conditions noted are these: pre-treatment; cited from earlier work.
Experiment [3] deals with Fusarium graminearum (strain 4528). The conditions noted are these: cited from earlier work.
The test system of a further experiment is Fusarium graminearum. The conditions noted are these: in vivo; cited from earlier work.

Regarding `CC1(C)CCC(Cc2ccc(Cl)cc2)C1(O)Cn1cncn1` (centres unmarked) [metconazole, reference compound], in the experiment on Fusarium fungi [1] (treatment date 10.6.), the “ZEA content of the grains” value is recorded as 53%, the “Infection (ears infected by Fusarium fungi)” value was 18% and the Grain yield is on record as 108%. Also, in the experiment on Fusarium fungi [1] (treatment date 19.6.), the “ZEA content of the grains” value is 33%, the “Infection (ears infected by Fusarium fungi)” value was 18% and the Grain yield is recorded as 110%.

Turning to prohexadione-calcium, the “ZEA content of the grains” value in the experiment on Fusarium fungi [1] (treatment date 10.6.) was found to be 23%; in the experiment with Fusarium fungi [1] (treatment date 19.6.) it was 32%. Besides, the “Infection (ears infected by Fusarium fungi)” value is 78% in the experiment on Fusarium fungi [1] (treatment date 10.6.); 51% in the experiment with Fusarium fungi [1] (treatment date 19.6.); 91% with Fusarium fungi [2] (relative to untreated = 100% (43.8% of the ears infected), 50 g/ha applied Jun. 7, 2004 at beginning of flowering, assessed Jun. 28, 2004). The Grain yield is on record as 98% in the experiment with Fusarium fungi [1] (treatment date 10.6.); 105% with Fusarium fungi [1] (treatment date 19.6.); 109% in the experiment with Fusarium fungi [2] (relative to untreated = 100% (2.9 t/ha), 50 g/ha, Jun. 7, 2004). Also, the “DON content of the grains (statement in words)” value with Fusarium fungi [1] (winter wheat Slade, Ulhówek 2004, no DON figures printed) was “reduces the DON and ZEA contents considerably”. For the same molecule, the “Content of the grains of NIV” value in the experiment on Fusarium fungi [2] (in vivo) came to 75%. Besides, the “Content of the grains of DON” value with Fusarium fungi [2] (relative to untreated = 100% (22.4 mg of DON per kg of harvested grains), 50 g/ha, Jun. 7, 2004) is on record as 81%. Further, the “Reduction of infection of wheat with mildew” value in the experiment with mildew is given as “cannot be reduced”.

As for `COc1ccc(C(O)(c2cncnc2)C2CC2)cc1` (centres unmarked) [ancymidole], in experiment [3], the “Inhibition of mycelium growth” value is listed as “only weakly” and the “Inhibition of the formation of 3-acetyldeoxynivalenol (3-ADON)” value is reported as “only weakly”.

As for `CC(C)C(O)(c1ccc(OC(F)(F)F)cc1)c1cncnc1` (centres unmarked) [flurprimidole], in experiment [3], the “Inhibition of mycelium growth” value is “only weakly” and the “Inhibition of the formation of 3-acetyldeoxynivalenol (3-ADON)” value is “only weakly”.

Take `C[N+](C)(C)CCCl.[Cl-]` [chlormequat chloride, 2-chloroethyltrimethylammonium chloride]: the “Effect on the susceptibility of wheat ears to infection with Fusarium graminearum” value in the experiment with Fusarium graminearum is “no direct effect”.
